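48-hour exposure; five concentrations; linearly interpolated endpoints. Abbreviation: GI50, concentration required for 50% inhibition of growth.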 The source made the active and inactive calls. No stated cut-off is given here; in the data, active = GI50 up to about 1.1 µM and inactive = higher.
How the values were obtained:
Assay in all cases: NCI anticancer screen, dose series, 48 h
MDA-MB-231 = system: MDA-MB-231
HT-29 = system: HT-29
UO-31 = system: UO-31
HCC 2998 = system: HCC 2998
MDA-MB-435 = system: MDA-MB-435
SNB-19 = system: SNB-19
EKVX = system: EKVX
SF-268 = system: SF-268
NCI-H522 = system: NCI-H522
NCI-H23 = system: NCI-H23
LOX IMVI = system: LOX IMVI
KM12 = system: KM12
BT-549 = system: BT-549
M14 = system: M14
SK-MEL-5 = system: SK-MEL-5
CAKI-1 = system: CAKI-1
A549 = system: A549
MDA-N = system: MDA-N
OVCAR-3 = system: OVCAR-3
HOP-18 = system: HOP-18

Row | Compound | GI50 (MDA-MB-231) | GI50 (HT-29) | GI50 (UO-31) | GI50 (HCC 2998) | GI50 (MDA-MB-435) | GI50 (SNB-19) | GI50 (EKVX) | GI50 (SF-268) | GI50 (NCI-H522) | GI50 (NCI-H23) | GI50 (LOX IMVI) | GI50 (KM12) | GI50 (BT-549) | GI50 (M14) | GI50 (SK-MEL-5) | GI50 (CAKI-1) | GI50 (A549) | GI50 (MDA-N) | GI50 (OVCAR-3) | GI50 (HOP-18)
1 | CC(C)(C)NCCC(O)c1cc(C(F)(F)F)nc2c(C(F)(F)F)cccc12 (centres undefined) | 9.4 µM (inactive) | 6.08 µM (inactive) | 0.502 µM (active) | 2.43 µM (inactive) | 12.9 µM (inactive) | 13.6 µM (inactive) | 14 µM (inactive) | 11.4 µM (inactive) | 11.7 µM (inactive) | 4.26 µM (inactive) | 1.12 µM (inactive) | 2.77 µM (inactive) | 8.11 µM (inactive) | 7.83 µM (inactive) | 12.5 µM (inactive) | 4.25 µM (inactive) | 4.38 µM (inactive) | 11.5 µM (inactive) | 8.38 µM (inactive) | 
2 | CCOC(=O)c1c(N2CCOCC2)[nH]c(=O)c(C(c2cccs2)c2c(O)c(C(=O)OCC)c(N3CCOCC3)[nH]c2=O)c1O | > 100 µM (inactive) | > 100 µM (inactive) | > 100 µM (inactive) | > 100 µM (inactive) | > 100 µM (inactive) | > 100 µM (inactive) | > 100 µM (inactive) | > 100 µM (inactive) | > 100 µM (inactive) | > 100 µM (inactive) | > 100 µM (inactive) | > 100 µM (inactive) | > 100 µM (inactive) | > 100 µM (inactive) | > 100 µM (inactive) | > 100 µM (inactive) | > 100 µM (inactive) | > 100 µM (inactive) | > 100 µM (inactive) | 
3 | O=c1[nH]nc(Cc2ccc([N+](=O)[O-])cc2)n1CCO | > 100 µM (inactive) | > 100 µM (inactive) | > 100 µM (inactive) | > 100 µM (inactive) | > 100 µM (inactive) | > 100 µM (inactive) | > 100 µM (inactive) | > 100 µM (inactive) | > 100 µM (inactive) | > 100 µM (inactive) | > 100 µM (inactive) | > 100 µM (inactive) | > 100 µM (inactive) | > 100 µM (inactive) | > 100 µM (inactive) | > 100 µM (inactive) | > 100 µM (inactive) | > 100 µM (inactive) | > 100 µM (inactive) | 
4 | CC(=O)NNc1nc(C)c(C(/C=C/c2ccccc2O)=N/N=C(N)N)s1 | > 100 µM (inactive) | > 100 µM (inactive) | > 100 µM (inactive) | > 100 µM (inactive) | > 100 µM (inactive) | > 100 µM (inactive) | 93.8 µM (inactive) | > 100 µM (inactive) | > 100 µM (inactive) | > 100 µM (inactive) | > 100 µM (inactive) | > 100 µM (inactive) | > 100 µM (inactive) | > 100 µM (inactive) | > 100 µM (inactive) | > 100 µM (inactive) | > 100 µM (inactive) | > 100 µM (inactive) | > 100 µM (inactive) | 
5 | COc1cc(C)cc2c1C(=O)C(Br)=CC2=O | 14.7 µM (inactive) | 8.22 µM (inactive) | 5.38 µM (inactive) | 19.5 µM (inactive) | 2.29 µM (inactive) | 16.3 µM (inactive) | 17.7 µM (inactive) | 16.4 µM (inactive) | 2.03 µM (inactive) | 15.5 µM (inactive) | 8.59 µM (inactive) | 15 µM (inactive) | 11.1 µM (inactive) | 3.3 µM (inactive) | 12.6 µM (inactive) | 1.63 µM (inactive) | 21.2 µM (inactive) | 3.56 µM (inactive) | 4.82 µM (inactive) | 
6 | COc1cccc2c1C1=CC(=O)CCC1C(C)(C)O2 (centres undefined) |  | > 100 µM (inactive) | > 100 µM (inactive) |  |  | > 100 µM (inactive) | > 100 µM (inactive) | 44.1 µM (inactive) | > 100 µM (inactive) | > 100 µM (inactive) | 35.7 µM (inactive) | 45.6 µM (inactive) |  | > 100 µM (inactive) | > 100 µM (inactive) | > 100 µM (inactive) | > 100 µM (inactive) |  | > 100 µM (inactive) | > 100 µM (inactive)
7 | CC(C)N1CC2CC(CN(C(=O)c3ccc(Cl)cc3)C2)C1 |  | > 100 µM (inactive) | > 100 µM (inactive) |  |  | > 100 µM (inactive) | > 100 µM (inactive) | > 100 µM (inactive) | > 100 µM (inactive) | > 100 µM (inactive) | > 100 µM (inactive) | > 100 µM (inactive) |  | > 100 µM (inactive) | > 100 µM (inactive) | > 100 µM (inactive) | > 100 µM (inactive) |  | > 100 µM (inactive) | > 100 µM (inactive)
8 | Cc1ccc([C@H]2CC(=O)C[C@H](c3ccc(C)cc3)C23C(=O)c2ccccc2C3=O)cc1 | 54.7 µM (inactive) | 67.3 µM (inactive) | > 100 µM (inactive) | 57.3 µM (inactive) | 41.3 µM (inactive) | 26.9 µM (inactive) | > 100 µM (inactive) | 23 µM (inactive) | 3.23 µM (inactive) | > 100 µM (inactive) | 9.98 µM (inactive) | > 100 µM (inactive) | 34.3 µM (inactive) | 27.8 µM (inactive) | 34.4 µM (inactive) | 68.2 µM (inactive) | 43.2 µM (inactive) | 52.8 µM (inactive) | 41.9 µM (inactive) | 

From ChEMBL document CHEMBL1201862, “PubChem BioAssay data set” (2004)
